Reference: patent US8263601B2, “Deuterium substituted xanthine derivatives” (CoNCERT Pharmaceuticals, Inc., priority 2009, dated 2012)
Where two headings read alike, the source gives them in different places.

Columns and labels:
[1] = in vivo; design: species or system male beagle dogs; details: male, beagle, dog, po
Description: Metabolism of the title compounds were studied following oral administration to male beagle dogs. Blood samples were removed from dosed dogs at various time points and plasma isolated therefrom. The plasma samples were used for the determination of plasma drug levels by LC-MS/MS (liquid chromatography with tandem mass spectrometry) for estimating pharmacokinetic parameters.
Compound 409 and pentoxifylline were dissolved separately in saline to a concentration of 4 mg/mL. A 1:1 (v/v) mixture of the two solutions was prepared to yield a solution having a final concentration of 2 mg/mL of both Compound 409 and pentoxifylline.
Two male beagle dogs were fasted overnight and then orally dosed via gavage with 2.5 mg/kg of Compound 409 and pentoxifylline using the mixture described above. Blood samples (1.5-2 mL) were collected via the femoral vein at 0 min (pre-dose), 15 min, 30 min, 45 min, 1 hr, 1.5 hr, 2 hr, 3 hr, 4 hr, 6 hr, 8 hr, 10 hr, 12 hr, 16 hr and 24 hr post-dose. Blood was stored on ice prior to centrifugation to obtain plasma samples. Centrifugation took place within 1 hour of blood collection to harvest plasma (maximum volume). The plasma was decanted immediately and frozen/stored at −70° C. until analysis.

[2] = design: species or system beagle dogs; details: dog, in vivo, po
Description: Example 34a was repeated with additional monitoring of the pentoxifylline and Compound 409 metabolites. In this experiment Compound 409 and pentoxifylline were dissolved separately in saline to a concentration of 4.4 and 4 mg/mL respectively. A 1:1 (v/v) mixture of the two solutions was prepared to yield a solution having a final concentration of 2.2 mg/mL of Compound 409 and 2 mg/mL pentoxifylline. Post-dosing data analysis included adjustments to account for the 10% difference in dosing concentration between compound 409 and pentoxifylline.
Four beagle dogs (2-3 years of age, and weighed 5 to 8 kg) were fasted overnight and then orally dosed via gavage with 2.75 mg/kg Compound 409 and 2.5 mg/kg pentoxifylline using the mixture described above. Blood samples (approximately 1 mL) were collected via femoral vein at 0 min (pre-dose), 5 min, 15 min, 30 min, 45 min, 1 hr, 1.5 hr, 2 hr, 3 hr, 4 hr, and 6 hr post-dose. Blood was stored on ice prior to centrifugation to obtain plasma samples. Centrifugation took place within 15 minutes of blood collection to harvest plasma (maximum volume). The plasma was decanted immediately and frozen/stored at −20° C. until analysis.
Plasma samples were analyzed by LC-MS/MS for the presence of the administered compound and its corresponding M1 metabolite:
The results from one of the four dogs (Dog H, FIG. 1b) were inconsistent with that of the other three. […] It was concluded that this dog was most likely improperly gavaged and that the compounds were probably administered through the trachea, rather than into the GI tract as would have been desired. Accordingly, the data from this dog was excluded from the analyses.

[3] = Stability of compounds in rat whole blood (Example 35); format: in vitro ADME; details: 5 μM, 37° C., approximately 2 hours, FIG. 3 columns A and B
Description: This study was performed to evaluate the stability of the title compounds in rat whole blood. Because the ketone (or keto-compound; either pentoxifylline or 409) and its corresponding M-1 alcohol metabolite interconvert, levels of these components were measured after either the keto-compound was added to the blood or the M-1 was added. In other words, in some tests the keto-compound was the starting test compound and in other tests an M-1 metabolite was the starting test compound.
Fresh rat whole blood was obtained from ViviSource Laboratories, Waltham, Mass. Stock solutions (7.5 millimolar (mM)) of test compounds were prepared in dimethyl sulfoxide (DMSO). The 7.5 mM stock solutions were diluted to 500 micromolar (μM) in acetonitrile (ACN). To 990 microliters (μL) of blood pre-warmed to 37° C. for 7 minutes was added 10 μl, of 500 μM test compound to a final concentration of 5 μM. The test compounds were pentoxifylline, (S)-M1 metabolite of pentoxifylline, (R)-M1 metabolite of pentoxifylline, Compound 409, Compound 435(S), and Compound 435(R). The latter two test compounds are deuterated (S)-M1 and (R)-M1 metabolites, respectively, of Compound 409. The reaction mixture was incubated at 37° C. Aliquots (50 μL) were removed at 0 min, 5 min, 15 min, 30 min, 1 hour and 2 hours following the addition of test compound and added to 96-well plates containing 150 μL of ice cold acetonitrile with an internal standard to stop the reaction. The plates were stored at −20° C. for 20 minutes after which 100 μL of 50% acetonitrile/water was added to the wells of the plate prior to centrifugation to pellet precipitated proteins. A 200-μL aliquot of each supernatant was transferred to another 96-well plate and analyzed by LC-MS/MS using an Applied Bio-systems API 4000 mass spectrometer for amounts of the administered compound and its specific metabolite listed in Table 11 below.
The results of this study are depicted in FIGS. 2 and 3.

[4] = Compound stability in human liver microsomes (Example 36); format: in vitro ADME; details: human liver microsomes 2.0 mg/mL, 5 μM, NADPH, 30 minutes, FIG. 5 columns A and B
Description: Example 36 is similar to Example 35 in design, except that human liver microsomes were used instead of rat whole blood to study the metabolism of the compounds.
Human liver microsomes (20 mg/mL) were obtained from Xenotech, LLC (Lenexa, Kans.). β-nicotinamide adenine dinucleotide phosphate, reduced form (NADPH), magnesium chloride (MgCl2), and dimethyl sulfoxide (DMSO) were purchased from Sigma-Aldrich.
Stock solutions containing 7.5 mM of test compounds (pentoxifylline, (S)-M1 metabolite, (R)-M1 metabolite, Compound 409, Compound 435(S), and Compound 435(R)) were prepared in DMSO. The 7.5-mM stock solutions were diluted to 250 μM in acetonitrile (ACN). The human liver microsomes were diluted to 2.5 mg/mL in 0.1 M potassium phosphate buffer, pH 7.4, containing 3 mM MgCl2. The diluted microsomes were added to wells of a 96-well deep-well polypropylene plate in triplicate. 10 μL of the 250 μM test compound was added to the microsomes and the mixture was pre-warmed to 37° C. for 10 minutes. Reactions were initiated by addition of pre-warmed NADPH solution. The final reaction volume was 0.5 mL and contained 2.0 mg/mL human liver microsomes, 5 μM test compound, and 2 mM NADPH in 0.1M potassium phosphate buffer, pH 7.4, and 3 mM MgCl2. The reaction mixtures were incubated at 37° C., and 50-μL aliquots were removed at 0, 5, 10, 20, and 30 minutes and added to shallow-well 96-well plates which contained 50 μL of ice-cold acetonitrile with internal standard to stop the reactions. The plates were stored at 4° C. for 20 minutes after which 100 μL of water was added to the wells of the plate before centrifugation to pellet precipitated proteins. Supernatants were transferred to another 96-well plate and analyzed for the amount of the administered compound and its specific metabolite (listed in Table 11 above) by LC-MS/MS using an Applied Bio-systems API 4000 mass spectrometer.
The results of this study are depicted in FIGS. 4 and 5. […]

[5] = design: species or system male beagle dogs; details: male, beagle, dog, in vivo, po
Description: This study was similar to those described in Examples 34a and 34b, except that Compound 413 was evaluated. Four male beagle dogs were orally dosed by gavage with a mixture containing 2 mg/mL each of pentoxifylline and Compound 413 in saline. Blood samples were taken as in Example 34b.

Structure (SMILES) | % Difference in Ave. AUC (deuterated vs nondeuterated species) [1] | % Difference in Ave. Cmax (deuterated vs nondeuterated species) [1] | AUC ([1]; 2.5 mg/kg) [ng·h/mL] | Cmax ([1]; 2.5 mg/kg) [ng/mL] | % Difference in Ave. AUC (deuterated vs nondeuterated species) ([2]; beagle) | % Difference in Ave. Cmax (deuterated vs nondeuterated species) ([2]; beagle) | Clearance from the plasma compared to pentoxifylline [2] | Amount of (S)-M1 type metabolite (Compound 419(S)) formed from keto-compound, compared to (S)-M1 formed from pentoxifylline [3] | Amount of (S)-M1 type metabolite (Compound 419(S)) formed from keto-compound, compared to (S)-M1 formed from pentoxifylline [4] | % Difference in Ave. AUC (deuterated vs nondeuterated species) [5] | % Difference in Ave. Cmax (deuterated vs nondeuterated species) [5]
[2H]c1nc2c(c(=O)n(CCCC([2H])([2H])C(=O)C([2H])([2H])[2H])c(=O)n2C)n1C([2H])([2H])[2H] [Compound 409, 8-d1-3-methyl-7-(methyl-d3)-1-(6-d3-4-d2-5-oxohexyl)-1H-purine-2,6(3H,7H)-dione] | +80% | +57% | 811 | 1230 | +97% | +80% | more slowly cleared | similar | similar |  | 
[2H]c1nc2c(c(=O)n(CCCC([2H])([2H])C(=O)C([2H])([2H])[2H])c(=O)n2C([2H])([2H])[2H])n1C([2H])([2H])[2H] [Compound 413, 8-d1-3,7-Di(methyl-d3)-1-(4,4,6,6,6-d5-5-oxohexyl)-1H-purine-2,6(3H,7H)-dione] |  |  |  |  |  |  |  |  |  | +74% | +47%
